Here are results for ten compounds from US11730723B2, “Compounds and methods for treating viral infections” (priority 2020, dated 2023).

“And” between values parts separate entries of the source, which are not always exact repeats. Equal entries are not always repeated. Where two headings read alike, the source gives them in different places.

For data set [1], the system named is dengue virus (DENV) serotype 2 strain D2S221. Nature of the data set: Dengue virus D2S221 inhibition assay in Vero cells (immunostaining). The conditions noted are these: read-out: D2S221 IC50.
Another data set deals with H292 cells (NCI-H292). Nature of the data set: Cytotoxicity in uninfected H292 cells (MTT). The conditions noted are these: CC50, uninfected H292 cells.
Data set [2] deals with alpha coronavirus 229E (CoV-229E). Description: CoV-229E virus-induced CPE inhibition in MRC-5 cells (XTT). The conditions noted are these: 6 days. For orientation: Formazan colour is commonly taken as a measure of viable cells.
For data set [3], the system named is HCoV-OC43. Nature of the data set: HCoV-OC43 CPE assay in Huh-7 cells (neutral red uptake, 6 days). Format: cell-based, human coronavirus (HCoV) OC43 strain. The conditions noted are these: for Raw OD-Absorbance 490 nm: infected Huh-7, neutral red uptake, individual replicates.
Data set [4] deals with HBV wild-type strain ayw1. Nature of the data set: Primary anti-HBV assay in HepG2 2.2.15 cells (qPCR of HBV DNA). The conditions noted are these: Hepatitis B virus, HepG2 2.2.15, 144 h. For orientation: Real-time PCR tracks product formation cycle by cycle.
A short description of data set [5]: Cytotoxicity in HepG2 2.2.15 cells (MTS). It is filed as cell-based. As to conditions: human, same assay plate.
For data set [6], the system named is SARS-CoV-2 (USA-WA1/2020). Nature of the data set: microbe, parasite or virus in culture. As to conditions: Severe acute respiratory syndrome coronavirus 2, Vero C1008, 48 h, read-out: Live SARS-CoV-2 Antiviral Assay IC50.
Data set [7] deals with SARS-CoV-2 (USA-WA1/2020). As to conditions: Compound 1 at 25 μM; HCQ at 5 μM; remdesivir 10 μM.
In another data set the test system is Vero E6 cells. The conditions noted are these: for viability of Vero E6 cells (percent of vehicle alone): 2-day treatment, mean ± SD of duplicates.
Another data set is described as follows: in vitro. The conditions noted are these: African green monkey.
Data set [8] concerns HCoV-OC43. Description: HCoV-OC43 efficacy in H292 cells (MTT, 6 days). It is filed as cell-based, HCoV-OC43 (Betacoronavirus 1). The conditions noted are these: Betacoronavirus 1, OC43, NCI-H292, read-out: Efficacy.
The subject of a further data set is MRC-5 cells. Nature of the data set: Cell viability of uninfected drug control MRC-5 cells (XTT), TC50. As to conditions: read-out: TC50, uninfected MRC-5 cells, 6 days.
A short description of data set [9]: Cytotoxicity on Huh7 cells (CellTiter Glo). The conditions noted are these: human. For orientation: ATP-based viability assays read luminescence as a measure of living cells.
The nature of data set [10]: Cytotoxicity on MRC-5 cells (CellTiter Glo). As to conditions: human.
For the next data set, the system named is HCoV 229E. Description: HCoV 229E CPE assay in MRC-5 cells (CellTiter Glo). As to conditions: unidentified human coronavirus, MRC5, read-out: HCoV 229E CPE assay EC50. It is filed as cell-based, human coronavirus (HCoV) 229E.
The test system of another data set is HCoV OC43. Nature of the data set: HCoV OC43 CPE assay in Huh7 cells (CellTiter Glo). Format: cell-based, human coronavirus (HCoV) OC43. As to conditions: Betacoronavirus 1, OC43, Huh-7, read-out: HCoV OC43 CPE Assay EC50.
In a further data set the test system is Huh-7 cells. Nature of the data set: Cytotoxicity / viability of uninfected Huh-7 cells (XTT, 6 days). As to conditions: for Viability (A490): control; for Viability of Huh-7 Cells (A490): raw absorbance 490 nm.

What is called IC50 is the concentration at which inhibition is half-maximal. With `CCN(CC)CCCC(C)Nc1ccnc2cc(Cl)ccc12` (stereo not drawn) [Chloroquine diphosphate], the concentration for half-maximal inhibition (IC50) in data set [1] is 23700 nM.
In the data set with H292 cells (NCI-H292), `CCN(CC)CCCC(C)Nc1ccnc2cc(Cl)ccc12` (stereo not drawn) [Chloroquine] yielded a Cytotoxicity of 46.04 µM. For the same compound, in data set [2], the EC50 amounted to 490 nM. In the data set on HCoV-OC43 [3] (CQ 5 μM, relative to uninfected cells (mock), listed as CQ), the “Inhibition of OC43 Virus-Induced CPE in Huh-7 Cells” value (shortened to “Inhibition”) worked out at 87.8%. Besides, the “Raw OD-Absorbance 490 nm” value with HCoV-OC43 [3] (CQ 5 μM, listed as CQ) was 0.693 and 0.689.
In general, EC90 refers to the concentration needed for an effect of 90%. In data set [4], `C=C1[C@H](CO)[C@@H](O)C[C@@H]1n1cnc2c(=O)[nH]c(N)nc21` [Entecavir] had an EC50 of 0.44 nM and a concentration for an effect of 90% (EC90) greater than 1000 nM. This compound came in with a CC50 in data set [5] greater than 1000 nM.
Turning to `CCN(CCO)CCCC(C)Nc1ccnc2cc(Cl)ccc12` (stereo not drawn) [HCQ, hydroxychloroquine], in data set [6], the IC50 is roughly 3000 nM. In [7], the “prevention of the SARS-CoV-2 induced CPE (in words)” value was “prevented most of the virus-induced CPE”. Also, the “viability of Vero E6 cells (percent of vehicle alone)” value in the data set with Vero E6 cells (0.16 μM) turned out to be 103.9 ± 6.9%; with Vero E6 cells (0.31 μM), 102.3 ± 4.6%; in the data set with Vero E6 cells (0.63 μM), 103.2 ± 3.4%; with Vero E6 cells (1.25 μM) it was 100.4 ± 0.5%; in the data set with Vero E6 cells (2.5 μM), 94.4 ± 7.9%; with Vero E6 cells (5 μM), 93.4 ± 6.5%. For the same compound, the “viability of Vero E6 cells (percent of vehicle alone)” value in the data set with Vero E6 cells (10 μM) amounted to 93.8 ± 6.0%. The “viability of Vero E6 cells (in words)” value in the data set on Vero E6 cells (Compound 1 at concentrations lower than 25 μM, HCQ at all concentrations tested) is on record as “not significantly changed”. Also, the CC50 in the data set “in vitro” was greater than 10000 nM.
Compound `CCC(CC)COC(=O)[C@H](C)N[P@](=O)(OC[C@H]1O[C@@](C#N)(c2ccc3c(N)ncnn23)[C@H](O)[C@@H]1O)Oc1ccccc1` [Remdesivir] returned a Cytotoxicity in the data set on H292 cells (NCI-H292) greater than 20 µM. Also, the EC50 amounted to 37500 nM in the data set with HCoV-OC43 [8], 130 nM in [2], 20 nM in the data set on HCoV 229E and 20 nM in the data set with HCoV OC43. Moreover, the CC50 is greater than 2000 nM with MRC-5 cells, 6170 nM in data set [9] and 27900 nM in data set [10].
Turning to `Nc1ccn([C@@H]2CS[C@H](CO)O2)c(=O)n1` [Compound 3TC, Lamivudine], in [4], the EC50 came out at 28.3 nM and the concentration for an effect of 90% (EC90) was greater than 2000 nM. Also, in [5], the CC50 was greater than 2000 nM.
With `CC[C@H]1CN2CCc3cc(OC)c(OC)cc3[C@@H]2C[C@@H]1C[C@H]1NCCc2cc(OC)c(OC)cc21` [Emetine], the “Viability (A490)” value in the data set on Huh-7 cells (1 μM, percentage viability vs medium only) was 18.3 ± 0.3%; in the data set on Huh-7 cells (1 μM, raw absorbance, individual replicates), 0.176 and 0.179; with Huh-7 cells (5 μM, percentage viability vs medium only) it was 8.2 ± 0.7%; in the data set with Huh-7 cells (5 μM, raw absorbance, individual replicates), 0.104 and 0.111. The “cell viability blocked / inhibited” value with Huh-7 cells (cytotoxic control, XTT, tested at 5 μM) is reported as “more than 90%”.
As to `NC(=O)c1ncn([C@@H]2O[C@H](CO)[C@@H](O)[C@H]2O)n1` [Ribavirin], the IC50 in [1] worked out at 71100 nM.
Turning to `CCN(CC)CCNC(=O)c1c(C)[nH]c(/C=C2\C(=O)Nc3ccc(F)cc32)c1C` [Sunitinib], the Cytotoxicity in the data set with H292 cells (NCI-H292) was 10 to 50 µM. In the data set on MRC-5 cells, the CC50 amounted to 1320 nM. Further, the EC50 in data set [2] stood at 630 nM. Besides, the IC50 in data set [1] came out at 4060 nM.
On to Sunitinib maleate, for which the “Viability of Huh-7 Cells (A490)” value in the data set with Huh-7 cells (0.01 μM, 6 days, individual replicates) is 0.721 and 0.651; in the data set with Huh-7 cells (0.04 μM, 6 days, individual replicates), 0.738 and 0.751; with Huh-7 cells (0.12 μM, 6 days, individual replicates) it was 0.719 and 0.752; in the data set on Huh-7 cells (0.37 μM, 6 days, individual replicates), 0.732 and 0.765; in the data set on Huh-7 cells (1.1 μM, 6 days, individual replicates), 0.676 and 0.665; in the data set on Huh-7 cells (3.3 μM, 6 days, individual replicates), 0.642 and 0.601. The “Viability of Huh-7 Cells (A490)” value in the data set with Huh-7 cells (10 μM, 6 days, individual replicates) was 0.543 and 0.554; in the data set on Huh-7 cells (30 μM, 6 days, individual replicates), 0.058 and 0.055; in the data set with Huh-7 cells (90 μM, 6 days, individual replicates), 0.053 and 0.054. Moreover, the CC50 in the data set on Huh-7 cells (read-out: Cytotoxicity (Huh-7 cells) CC50, 6 days, XTT) was found to be 13000 nM. Besides, the “Inhibition” value in the data set with HCoV-OC43 [3] (0.01 μM, mean of duplicates) was 1.1%; in the data set on HCoV-OC43 [3] (0.04 μM, mean of duplicates), −1.2%; in the data set on HCoV-OC43 [3] (0.12 μM, mean of duplicates) it was −0.1%; in the data set on HCoV-OC43 [3] (0.4 μM, mean of duplicates) it was −2.4%; in the data set with HCoV-OC43 [3] (1.1 μM, mean of duplicates) it was −1.0%; in the data set on HCoV-OC43 [3] (3.3 μM, mean of duplicates) it was 17.9%. Besides, the “Inhibition” value with HCoV-OC43 [3] (10 μM, mean of duplicates) is on record as 21.4%; with HCoV-OC43 [3] (30 μM, mean of duplicates) it was −7.8%. In the data set with HCoV-OC43 [3] (Huh-7 cells, 6 days, neutral red), the EC50 was greater than 30000 nM. The “Raw OD-Absorbance 490 nm” value was 0.120 in the data set on HCoV-OC43 [3] (0.01 μM); 0.094 with HCoV-OC43 [3] (0.04 μM); 0.086 and 0.090 with HCoV-OC43 [3] (0.4 μM); 0.094 with HCoV-OC43 [3] (1.1 μM); 0.312 and 0.136 with HCoV-OC43 [3] (3.3 μM); 0.214 and 0.280 in the data set on HCoV-OC43 [3] (10 μM). Further, in the data set on HCoV-OC43 [3] (30 μM), the “Raw OD-Absorbance 490 nm” value was 0.051 and 0.053.
